Measurements: patent US11286255B2, “Pyridone carboxylic acid derivative or salt thereof” (WAKUNAGA PHARMACEUTICAL CO., LTD., priority 2017, dated 2022)

Assays:
[1] = tested on: relapsed/refractory acute myeloid leukemia; settings: phase III trial, in combination with cytarabine, over-sixties; cited from earlier work
human cancer cells [2] = settings: cited from earlier work
human cancer cells [3] = settings: cited from earlier work; remark: listed apart in the source
[4] = tested on: MV4-11 (human acute myeloid leukemia cell line); assay: In vitro cell growth inhibition test against MV4-11; assay type: cell-based; settings: 72 h, MV4-11 cells, 3 days culture, WST-8 (Cell Counting Kit-8), 50% growth inhibition concentration
Procedure: Test Example 2: In Vitro Cell Growth Inhibition Test Against MV4-11 (Human Acute Myeloid Leukemia Cell Line)
The compound of the present invention was dissolved at a concentration of 1 mM in dimethyl sulfoxide and further diluted into 10.00, 2.50, 0.625, 0.156, 0.039, 0.0098, 0.0024, and 0.00061 μM (final concentrations) using dimethyl sulfoxide and IMDM (Thermo Fisher Scientific Inc., 12440-053) medium. Each of these dilutions was added at 0.05 mL/well to a 96-well flat-bottomed multiplate. An MV4-11 cell suspension was diluted into […] using IMDM (Thermo Fisher Scientific Inc., 12440-053) medium containing […] (fetal bovine serum, Thermo Fisher Scientific Inc.), and this dilution was added at 0.05 mL/well to the compound-containing 96-well flat-bottomed multiplate mentioned above, and cultured at 37° C. for 3 days in an incubator containing 5% carbon dioxide.
(§1) After the culture, Cell Counting Kit-8 (Dojindo Laboratories), which adopts WST-8 as a chromogenic substrate, was added at 10 μL/well, and the cells were cultured under the same conditions as above for 6 hours, followed by measurement of absorbance at 450 nm. A cell survival rate was calculated in terms of 50% growth inhibition concentration (IC50 (μM)) by the least square method with that of a control group defined as 100%.

[5] = tested on: PC-3 (human prostate cancer cell line); assay: In vivo antitumor effect test against PC-3 xenograft; parameters: species or system female Balb/c nu-nu mouse; settings: PC-3 xenograft in Balb/c nu-nu mice, 20 mg/kg, IV, Q7D ×3, tumor growth inhibition vs vehicle group
Procedure: Test Example 3: In Vivo Antitumor Effect Test Against PC-3 (Human Prostate Cancer Cell Line)
A suspension of cancer cells (1×10^7 cells/mL) prepared in RPMI culture medium (Sigma-Aldrich Co. LLC, R8758) was subcutaneously inoculated in an amount of 200 μL to the right abdomen of each female Balb/c nu-nu mouse (Charles River Laboratories Japan, Inc.). After tumor engraftment, animals having a sufficient tumor size were randomly assigned to an active (compound A or compound 078) group and a control (vehicle) group.
Each test compound (drug) was dissolved at each administration concentration in physiological saline containing 12.5 mM sodium hydroxide. The administration of the compound or a vehicle was started on the day of randomization and continued once a week for 21 days. During the test period, the body weights were measured twice a week throughout the treatment period, and tumors were measured twice a week using calipers. The tumor volumes were measured according to the expression V=L×W^2/2 (V: volume, mm3; L: length, mm; W: width, mm). Using the following expression:
% TGI=100−((Average tumor volume of the treatment group Average tumor volume of the control group)×100), tumor growth inhibition was calculated on the basis of the average tumor volume of the vehicle group.

[6] = tested on: WI-38 (human fetal lung fibroblast cell line); assay: In vitro cell growth inhibition test against WI-38; assay type: cell-based; settings: WI-38 normal cells, 12.5 μM compound, 3 days culture, WST-8, control group = 100%
Procedure: Test Example 4: In Vitro Cell Growth Inhibition Test Against WI-38 (Human Fetal Lung Fibroblast Cell Line)
A WI-38 cell suspension was inoculated at 5×10^3 cells/100 μL/well (0.1 mL) to a 96-well flat-bottomed multiplate using DMEM (Sigma-Aldrich Co. LLC, D6429) medium containing 10% FBS (fetal bovine serum, Nichirei Biosciences Inc.), and cultured at 37° C. for 1 day in an incubator containing 5% carbon dioxide. Compound A or the compound of the present invention was dissolved at a concentration of 10 mM in dimethyl sulfoxide and further diluted into 12.5 μM (final concentration) using dimethyl sulfoxide and RPMI-1640 medium. This dilution was added at 0.1 mL/well to the culture plate of the WI-38 cells mentioned above after removal of the medium, and the cells were cultured at 37° C. for 3 days in an incubator containing 5% carbon dioxide.
as §1, with “1 hour,” for “6 hours,”, “calculated” for “calculated in terms of 50% growth inhibition concentration (IC50 (μM)) by the least square method”

[7] = tested on: NCI-H460 (human non-small cell lung cancer cell line); assay: In vitro cell growth inhibition test against NCI-H460; assay type: cell-based; settings: 72 h, NCI-H460 cells, 3 days culture, WST-8 (Cell Counting Kit-8), 50% growth inhibition concentration
Procedure: Test Example 1: In Vitro Cell Growth Inhibition Test Against NCI-H460 (Human Non-Small Cell Lung Cancer Cell Line)
An NCI-H460 cell suspension was inoculated at 4×10^3 cells/100 μL/well (0.1 mL) to a 96-well flat-bottomed multiplate using RPMI-1640 (Sigma-Aldrich Co. LLC, R8758) medium containing 10% […] (fetal bovine serum, Thermo Fisher Scientific Inc.), and cultured at 37° C. for 1 day in an incubator containing 5% carbon dioxide. The compound of the present invention was dissolved at a concentration of 1 mM in dimethyl sulfoxide and further diluted into 5.00, 2.50, 1.25, 0.63, 0.31, 0.16, 0.078, and 0.039 μM (final concentrations) using dimethyl sulfoxide and RPMI-1640 medium. Each of these dilutions was added at 0.1 mL/well to the culture plate of the NCI-H460 cells mentioned above after removal of the medium, and the cells were cultured at 37° C. for 3 days in an incubator containing 5% carbon dioxide.
as §1, with “WST-8 [2-(2-methoxy-4-nitrophenyl)-3-(4-nitrophenyl)-5-(2,4-disulfophenyl)-2H-tetrazolium monosodium salt]” for “WST-8”, “1 hour,” for “6 hours,”

IC50 [4] [µM] | IC50 [7] [µM] | Compound | therapeutic effect as compared with a placebo group [1] | antitumor effect in vitro (human cancer cells [2]) | antitumor effect in vivo (human cancer cells [3]) | % TGI [5] [%] | Cell survival rate (%) [6] [%]
– | – | CNC1CN(c2ccc3c(=O)c(C(=O)O)cn(-c4nccs4)c3n2)CC1OC (centres unmarked) [1,4-dihydro-7-(3-methoxy-4-methylamino-1-pyrrolidinyl)-4-oxo-1-(2-thiazolyl)-1,8-naphthyridine-3-carboxylic acid] | significant therapeutic effect | excellent antitumor effect | excellent antitumor effect | – | –
10.3 | 0.37 | CNC1CN(c2ccc3c(=O)c(C(=O)O)cn(-c4nccs4)c3n2)CC1OC (centres unmarked) [Compound A, 1,4-Dihydro-7-(3-methoxy-4-methylamino-1-pyrrolidinyl)-4-oxo-1-(2-thiazolyl)-1,8-naphthyridine-3-carboxylic acid, reference compound] | – | – | – | 21.7 | 26
1.4 | 0.092 | Cc1cc(N2CC(C(=O)NCC3CCCCO3)C2)nc2c1c(=O)c(C(=O)O)cn2-c1nccs1 (centres unmarked) [Example 078, 5-methyl-7-{3-[(oxan-2-ylmethyl)carbamoyl]azetidin-1-yl}-4-oxo-1-(1,3-thiazol-2-yl)-1,4-dihydro-1,8-naphthyridine-3-carboxylic acid] | – | – | – | 49.2 | 68
